Assay results published in US20240156901A1, “GAL3BP POLYPEPTIDE COMPOSITIONS AND METHODS FOR TREATMENT OF CANCER AND DETERMINING TREATMENT RESPONSIVENESS” (UNIVERSITY OF PITTSBURGH-OF THE COMMONWEALTH SYSTEM OF …, priority 2021, published 2024).

Columns and labels:
[1] = tested on: CHI3L1 secretion; assay: ELISA of secreted CHI3L1 in conditioned medium of GBM neurosphere lines; type: cell-based, human; conditions: two GBM neurosphere lines
Method: Secreted CHI3L1 protein in the cell culture supernatant was measured by using the Quantikine Human CHI3L1 Immunoassay (R&D Systems, Cat #DC3L10). CHI3L1 content in the conditioned media was quantified per million cells and no CHI3L1 was detected in DMEM or NSC medium supplemented with EGF and bFGF.

[2] = tested on: bone-marrow derived macrophages (BMDMs); assay: Scratch-wound healing assay, BMDM migration; type: cell-based, mouse; conditions: rCHI3L1 0.6 μg/mL; 6 hours
Method: (§1) BMDMs were isolated from male and female C57BL/6 mice as previously described (Ying W et al., 2013). Briefly, femur bones were isolated from mice, and IMDM (ATCC) supplemented with 10% FBS and P/S was used to flush the bone marrow into a petri dish. After 4-6-hour incubation, the floating cells were collected and resuspended in the medium with 20 ng/mL M-CSF (PrproTech). On day 6, the fully differentiated cells were designated as an M0 state. To induce BMDM polarization toward an M1 state, 100 ng/mL LPS (Invitrogen) and 50 ng/mL IFNγ (PrproTech) were added to the M0 cells for 24 hours. To induce BMDM polarization toward an M2 state, 20 ng/mL IL-4 (PrproTech) was added to the M0 cells for 72 hours.
(§2) BMDM were polarized to the indicated status (M0, M1, or M2) and seeded in 12-well plates at 80-90% confluency. The cells were switched to the medium without FBS for 6 hours of starvation. Scratches were made using pipettor tips and fresh IMDM with indicated recombinant proteins and/or peptides were added. Images of the scratches were captured at indicated times. For the SIM-A9 scratch-wound healing assay, 12-well plates were coated with 10 μg/mL fibronectin (Sigma-Aldrich) at 37° C. overnight before seeding cells.

[3] = tested on: bone-marrow derived macrophages (BMDMs); assay: Transwell migration assay, BMDM migration; type: cell-based, mouse
Method: as §1
(§3) Polarized BMDMs were starved by removing FBS for 6 hours. Cells were collected and 2×10^5 cells in 200 μL of IMDM were added into each transwell insert (Millipore, Cat #MCMP24H48). 700 μL of IMDM containing 2% FBS and the indicated recombinant proteins was added to the bottom of the plates. After 14-hour incubation, transwell inserts were stained with HEMA 3 Stain Set (Fisher Scientific). Insert membranes were separated and mounted on glass slides with CYTOSEAL XYL (ThermoFisher) and images were taken by an inverted microscope (Leica DM 2500). For the SIM-A9 cells, the inserts were coated with 10 μg/mL fibronectin overnight in advance of seeding cells.

[4] = tested on: mouse microglial cell line (SIM-A9); assay: Scratch-wound healing assay, microglial cell migration; type: cell-based; conditions: rCHI3L1 0.6 μg/mL, 6 hours
Method: as §2

[5] = tested on: microglial cell line (SIM-A9); assay: Transwell migration assay, microglial cell migration; type: cell-based, mouse
Method: as §3

[6] = target: Gal3-CHI3L1 interaction (Homo sapiens, UniProt P17931); conditions: TS603-V5-CHI3L1 cells; 10 μM for 24 hours
Method: (§4) TS603 cells overexpressing CHI3L1 with V5 tag (TS603 CHI3L1_V5_OE) or THP-1 cells treated with the peptides were collected and protein-protein interaction was crosslinked with 2 mM Dithiobis (succinimidyl propionate, DSP). Membrane proteins were extracted with the Membrane Protein Extraction Kit (ThermoFisher, Cat #89842) and ˜500 μg of protein was used for Co-IP assay by the Co-Immunoprecipitation Kit (ThermoFisher, Cat #26149). For mass spectrometry, 10 μg of each of the TS603 CHI3L1_V5_OE Co-IP samples were separated in a 12% SDS-PAGE gel and analyzed by MS at the University of Pittsburgh Biomedical MS Center.
(§5) To confirm Co-IP experiments in TS603 cells by immunoblotting, the magnetic beads of protein G (Bio-Rad, Cat #161-4023) were used following the manufacturer's protocol. […] For in vivo THP-1 cell or in vitro recombinant protein Co-IP experiments, additional following antibodies were used: Mouse anti-CHI3L1 (Santa Cruz Biotechnology, Cat #SC-393590), Rat anti-Galectin-3 (Santa Cruz Biotechnology, Cat #SC-23938), anti-Galectin-3BP (Santa Cruz Biotechnology, Cat #SC-374541), Rabbit anti-CHI3L1 (Cell Signaling Technology, Cat #47066), and Rat IgG (BioXCell, Cat #BE0090).

[7] = target: Gal3-Gal3BP interaction (Homo sapiens, UniProt P17931); conditions: TS603-V5-CHI3L1 cells; 10 μM for 24 hours
Method: as §4, §5

[8] = tested on: GL261-CHI3L1 glioma; assay: Flow cytometry of immune cell populations in GL261-CHI3L1 glioma after peptide treatment; type: in vivo, mouse; conditions: tumors of C57BL/6 mice bearing GL261-CHI3L1
Method: Mice with neurological deficits or moribund appearance were sacrificed. Tumors were separated and homogenized for 15 min at 37° C. in Collagenase IV Cocktail (3.2 mg/mL collagenase type IV, 2 mg/mL soybean trypsin inhibitor, and 1.0 mg/mL deoxyribonuclease I; Worthington Biochemical). Red blood cells were lysed using ACK lysing buffer (Gibco). Cell suspensions were filtered through 70-μm strainers, centrifuged, and resuspended in cold FACS buffer (DPBS with 1% BSA) for further analysis.
About 3×10^6 cells were used for each staining panel. Cells were incubated with 1.0 μg of TruStain fcX (BioLegend) for 10 min on ice to block Fc receptors, followed by staining with the combination of indicated antibodies. After staining, cells were washed with FACS buffer three times and incubated with Fixation Buffer (BioLegend) at RT for 20 min. Cells were washed with FACS buffer, resuspended in Cyto-Last Buffer (BioLegend), and analyzed by either a BD LSRFortessa or BD FACSAria II SORP. For CyTOF, samples were prepared as described above for flow cytometry. Three pairs of samples (scrambled shRNA vs Chi3l1 KD) with similar tumor sizes were chosen and the staining procedure was followed as previously described (Mitsialis V, et al., 2020). The samples were analyzed on a Helios2 CyTOF system (Fluidigm) at the Longwood Medical Area CyTOF Core. Additional information about flow cytometry antibodies is provided in the Supplementary Material and Methods section.

[9] = tested on: GL261-CHI3L1 orthotopic tumors; assay: Peptide treatment of GL261-CHI3L1 orthotopic tumors (MRI, survival); conditions: C57BL/6 mice bearing GL261-CHI3L1 orthotopic tumors; 20 μM peptide into brain tumor via guide screw
Method: Male and female ICR SCID and C57BL/6 mice (4-6 weeks of age) were purchased from Taconic Biosciences and The Jackson Laboratory, respectively. The intracranial xenograft tumor models were established as previously described (Hu B et al., 2016). Cells in 5 μL DPBS were injected at the following numbers: TS543 vector control or CHI3L1 overexpression (OE), 1×10^4 cells; QPP7 scrambled control or CHI3L1 knockdown (KD), 1×10^5 cells; and GL261 vector control or CHI3L1 OE, 1×10^5 cells. […] For mice treated with peptides, 5 uL of 20 uM SCP or GMP was delivered into the mouse brain every 4 days with a total of seven times.
MRI and bioluminescent imaging of mice were performed at Rangos Research Center Animal Imaging Core. The tumor size of mice detected by MRI was analyzed with ITK-SNAP.
For intracranial xenograft tumor models treated with peptides, mice were implanted with a guide screw prior to intracranial injection. To install the screw, mice were anesthetized by intraperitoneal (IP) injection with ketamine/xylazine solution (1.75 mL of 100 mg/mL ketamine and 0.25 mL of 100 mg/mL xylazine in 8 mL sterile water) at a dosage of 100 μL/20 g body weight. The screw was covered by sealing the skin, and mice were allowed to recover for one week before intracranial implantation. GL261 cells overexpressing CHI3L1 (1×10^5) were injected in 5 μL of DPBS containing 20 μM of either scrambled control peptide (SCP) or Gal3BP mimetic peptide (GMP). SCP (20 μM) or GMP (20 μM) was subsequently given once every 3 days with a total of seven times by intracranial injection via the guide screw.
All mice received general inhalation anesthesia with Isoflurane for in vivo brain imaging. […] Depth of anesthesia was monitored by toe reflex (extension of limbs, spine positioning) and respiration rate. […] Respiration was monitored using a pneumatic sensor placed between the animal bed and the mouse's abdomen, rectal temperature was measured with a fiberoptic sensor, and core temperature was maintained at 36.8±0.2° C. with a feedback-controlled warm air source (SA Instruments). […]

Sequence of Gal3-CHI3L1 interaction (P17931 2-250 limits assumed): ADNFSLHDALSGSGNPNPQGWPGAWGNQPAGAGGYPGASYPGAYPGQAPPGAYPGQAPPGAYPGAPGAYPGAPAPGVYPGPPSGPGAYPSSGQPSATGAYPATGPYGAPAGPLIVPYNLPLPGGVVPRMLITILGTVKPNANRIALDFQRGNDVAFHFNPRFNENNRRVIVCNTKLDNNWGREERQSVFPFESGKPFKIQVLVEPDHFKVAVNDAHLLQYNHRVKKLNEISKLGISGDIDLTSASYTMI
Sequence of Gal3-CHI3L1 interaction (P36222 22-383 partner): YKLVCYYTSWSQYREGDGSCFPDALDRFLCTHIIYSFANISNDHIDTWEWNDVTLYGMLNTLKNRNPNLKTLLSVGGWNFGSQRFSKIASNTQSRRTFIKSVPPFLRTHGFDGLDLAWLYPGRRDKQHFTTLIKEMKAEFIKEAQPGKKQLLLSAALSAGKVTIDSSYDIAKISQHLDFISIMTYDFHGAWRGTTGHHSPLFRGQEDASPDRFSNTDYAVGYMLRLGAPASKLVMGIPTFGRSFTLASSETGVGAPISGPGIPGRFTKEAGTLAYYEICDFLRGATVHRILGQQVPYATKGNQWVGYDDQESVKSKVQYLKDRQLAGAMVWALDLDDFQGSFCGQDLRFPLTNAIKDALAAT
Sequence of Gal3-Gal3BP interaction (P17931 2-250 limits assumed): as the sequence (P17931 2-250 limits assumed) above
Sequence of Gal3-Gal3BP interaction (P36222 22-383 partner): as the sequence (P36222 22-383 partner) above

For `Nc1cc(C(F)(F)F)c(-c2cc(N3CCOCC3)nc(N3CCOCC3)n2)cn1` [NVP-BKM120], the “CHI3L1 secretion in conditioned medium” value [1] was “decreased CHI3L1 secretion in a dose- and time-dependent manner”.
rCHI3L1: recombinant CHI3L1 protein was tested, and the “M0 and M1 BMDM migration” value [2] was “not M0 and M1 BMDMs”, the “M2 BMDM migration” value [2] was “promoted M2 BMDM migration” and the “M2 BMDM migration” value [3] was “promoted cell migration in M2 BMDMs”. The microglial cell migration [4] was “did not increase cell migration” and the microglial cell migration [5] was “not in M0 BMDMs, M1 BMDMs, or microglial cells”.
`OC[C@H]1O[C@@H](S[C@@H]2O[C@H](CO)[C@H](O)[C@H](n3cc(-c4cccc(F)c4)nn3)[C@H]2O)[C@H](O)[C@@H](n2cc(-c3cccc(F)c3)nn2)[C@H]1O` [TD139] was tested, and the “Gal3-CHI3L1 interaction (Co-IP)” value [6] was “not Gal3-CHI3L1 interactions” and the “Gal3-Gal3BP interaction (Co-IP)” value [7] was “completely disrupted”.
With “L1RTRLEETLSSDTSH15 (LRTRLEETLSSDTSH) [SCP, reference compound]” the “CD4+ cell population” value [8] was 39.8±4.0%, the “M2-like TAMs” value ([8]; mean±SEM, P=0.0536) was 52.7±3.9% and the “M1-like TAMs” value ([8]; mean±SEM, P=0.0719) was 38.2±6.7%. For the same compound, the median survival [9] was 29 days.
In the case of `Cn1c(=O)n(-c2ccc(C(C)(C)C#N)cc2)c2c3cc(-c4cnc5ccccc5c4)ccc3ncc21` [NVP-BEZ235], the “CHI3L1 secretion in conditioned medium” value [1] is reported as “decreased CHI3L1 secretion in a dose- and time-dependent manner”.
